Measured values from article PMC5053573, “Structure-Based Design of Tetrahydroisoquinoline-7-carboxamides as Selective Discoidin Domain Receptor 1 (DDR1) Inhibitors” (Journal of Medicinal Chemistry, 2016).

Assays:
CDK11 = CDK11 (Homo sapiens, UniProt Q9BWU1); experiment: KINOMEscan binding constant, CDK11; settings: read-out: Binding affinity (Kd, nM) CDK11
[1] = Pharmacokinetics study in SD rats; type: in vivo; settings: male, Sprague-Dawley, rat, whole blood, iv, 4 mg/kg, read-out: CL (L/hr/kg) in rats (converted)
PFPK5(P.falciparum) = molecular target: T1, PFPK5(P.falciparum) (Plasmodium falciparum, UniProt P61075); experiment: biochemical; settings: competition binding; read-out: %Ctrl @ 1000nM
T1 construct: gene CRK2
T1 sequence (P61075 whole entry): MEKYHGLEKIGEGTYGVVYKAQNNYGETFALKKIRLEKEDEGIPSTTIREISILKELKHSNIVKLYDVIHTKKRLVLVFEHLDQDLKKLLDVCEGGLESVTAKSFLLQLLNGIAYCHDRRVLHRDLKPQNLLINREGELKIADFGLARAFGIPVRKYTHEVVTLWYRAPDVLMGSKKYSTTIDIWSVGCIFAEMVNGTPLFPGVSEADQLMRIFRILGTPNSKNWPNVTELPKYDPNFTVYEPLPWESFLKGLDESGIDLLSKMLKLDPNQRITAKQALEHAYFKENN

PFCDPK1(P.falciparum) = molecular target: T2, PFCDPK1(P.falciparum) (Plasmodium falciparum, UniProt P62344); experiment: biochemical; settings: competition binding; read-out: %Ctrl @ 1000nM
T2 construct: gene CDPK1
T2 sequence (P62344 whole entry): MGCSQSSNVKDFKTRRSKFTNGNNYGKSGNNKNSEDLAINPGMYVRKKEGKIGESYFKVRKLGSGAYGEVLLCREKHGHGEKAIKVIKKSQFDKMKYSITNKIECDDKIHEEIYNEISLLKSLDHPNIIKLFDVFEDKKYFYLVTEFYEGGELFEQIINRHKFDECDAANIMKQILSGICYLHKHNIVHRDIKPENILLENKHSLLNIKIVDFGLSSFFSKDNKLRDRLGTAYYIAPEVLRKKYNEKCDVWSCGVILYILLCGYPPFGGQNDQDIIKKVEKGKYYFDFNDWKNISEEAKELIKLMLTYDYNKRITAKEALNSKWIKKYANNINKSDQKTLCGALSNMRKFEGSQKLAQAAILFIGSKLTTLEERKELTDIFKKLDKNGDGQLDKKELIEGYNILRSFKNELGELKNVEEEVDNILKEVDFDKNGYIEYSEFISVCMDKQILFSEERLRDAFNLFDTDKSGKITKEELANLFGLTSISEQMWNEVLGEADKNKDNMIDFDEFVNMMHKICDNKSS

PKNB(M.tuberculosis) = PKNB(M.tuberculosis) (Mycobacterium tuberculosis, UniProt P9WI81); experiment: biochemical; settings: read-out: %Ctrl @ 1000nM
PKNB(M.tuberculosis), sequence (P9WI81 whole entry, looked up): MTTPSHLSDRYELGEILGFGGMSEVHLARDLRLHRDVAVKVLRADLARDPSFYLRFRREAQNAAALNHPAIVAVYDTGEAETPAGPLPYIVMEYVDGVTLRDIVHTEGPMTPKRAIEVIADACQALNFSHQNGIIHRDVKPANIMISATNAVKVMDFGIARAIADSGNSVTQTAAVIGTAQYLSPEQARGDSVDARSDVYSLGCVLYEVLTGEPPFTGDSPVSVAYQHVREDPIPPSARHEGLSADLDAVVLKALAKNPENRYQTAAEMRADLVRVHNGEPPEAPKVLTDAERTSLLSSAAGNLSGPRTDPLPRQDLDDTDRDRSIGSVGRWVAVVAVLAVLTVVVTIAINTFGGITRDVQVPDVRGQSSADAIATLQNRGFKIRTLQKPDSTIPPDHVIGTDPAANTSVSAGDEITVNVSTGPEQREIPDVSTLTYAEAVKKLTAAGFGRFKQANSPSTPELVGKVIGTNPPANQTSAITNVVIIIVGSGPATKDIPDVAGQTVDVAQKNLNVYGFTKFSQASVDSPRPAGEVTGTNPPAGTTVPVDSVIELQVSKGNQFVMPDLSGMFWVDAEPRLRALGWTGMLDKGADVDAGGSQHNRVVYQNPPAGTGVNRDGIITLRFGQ

ALK(C1156Y) = ALK(C1156Y) (Homo sapiens, UniProt Q9UM73, C1156Y); experiment: biochemical; settings: read-out: %Ctrl @ 1000nM
ALK(C1156Y), sequence (Q9UM73 whole entry C1156Y): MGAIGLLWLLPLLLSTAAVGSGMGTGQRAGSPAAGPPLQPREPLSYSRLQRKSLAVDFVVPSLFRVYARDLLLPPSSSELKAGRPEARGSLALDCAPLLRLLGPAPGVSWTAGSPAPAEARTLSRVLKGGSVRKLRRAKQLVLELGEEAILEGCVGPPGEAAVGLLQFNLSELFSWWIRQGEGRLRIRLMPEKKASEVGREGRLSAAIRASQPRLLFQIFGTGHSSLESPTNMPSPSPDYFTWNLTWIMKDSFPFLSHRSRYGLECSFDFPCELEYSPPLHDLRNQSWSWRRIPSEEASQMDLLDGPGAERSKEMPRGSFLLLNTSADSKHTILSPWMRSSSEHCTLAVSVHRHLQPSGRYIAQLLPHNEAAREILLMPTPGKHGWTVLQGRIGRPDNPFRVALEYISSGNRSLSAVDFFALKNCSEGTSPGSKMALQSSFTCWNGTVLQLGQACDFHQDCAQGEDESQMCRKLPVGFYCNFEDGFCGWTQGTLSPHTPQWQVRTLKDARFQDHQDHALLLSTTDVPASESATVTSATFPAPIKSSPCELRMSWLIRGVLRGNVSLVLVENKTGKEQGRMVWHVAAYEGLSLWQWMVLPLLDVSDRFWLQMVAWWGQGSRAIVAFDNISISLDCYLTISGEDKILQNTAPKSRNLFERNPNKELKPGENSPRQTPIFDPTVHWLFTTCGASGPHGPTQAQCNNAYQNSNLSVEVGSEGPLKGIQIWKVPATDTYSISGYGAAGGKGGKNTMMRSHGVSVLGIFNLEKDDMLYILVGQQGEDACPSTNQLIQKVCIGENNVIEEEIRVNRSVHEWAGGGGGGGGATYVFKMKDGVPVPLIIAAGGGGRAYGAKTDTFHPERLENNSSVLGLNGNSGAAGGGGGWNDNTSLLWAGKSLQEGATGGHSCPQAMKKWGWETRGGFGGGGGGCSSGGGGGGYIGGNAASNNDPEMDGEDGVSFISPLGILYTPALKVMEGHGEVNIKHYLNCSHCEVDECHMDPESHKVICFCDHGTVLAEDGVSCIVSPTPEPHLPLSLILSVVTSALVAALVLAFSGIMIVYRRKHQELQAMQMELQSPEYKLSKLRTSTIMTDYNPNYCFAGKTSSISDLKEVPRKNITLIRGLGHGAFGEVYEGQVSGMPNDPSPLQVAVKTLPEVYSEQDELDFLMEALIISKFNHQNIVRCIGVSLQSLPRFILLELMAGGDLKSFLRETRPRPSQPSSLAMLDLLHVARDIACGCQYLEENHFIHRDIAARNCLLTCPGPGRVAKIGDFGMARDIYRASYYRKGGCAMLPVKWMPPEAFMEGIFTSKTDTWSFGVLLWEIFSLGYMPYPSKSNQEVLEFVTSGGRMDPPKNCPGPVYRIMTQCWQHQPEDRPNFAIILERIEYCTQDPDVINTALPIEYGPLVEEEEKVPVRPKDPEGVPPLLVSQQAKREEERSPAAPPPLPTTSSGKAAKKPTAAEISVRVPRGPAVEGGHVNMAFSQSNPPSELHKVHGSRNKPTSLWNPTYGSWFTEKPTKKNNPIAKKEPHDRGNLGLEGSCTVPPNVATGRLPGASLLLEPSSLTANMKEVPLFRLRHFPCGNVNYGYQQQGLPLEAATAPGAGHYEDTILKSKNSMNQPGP

CAMKK2 = CAMKK2 (Homo sapiens, UniProt Q96RR4); experiment: biochemical; settings: read-out: %Ctrl @ 1000nM
CAMKK2, sequence (Q96RR4 whole entry): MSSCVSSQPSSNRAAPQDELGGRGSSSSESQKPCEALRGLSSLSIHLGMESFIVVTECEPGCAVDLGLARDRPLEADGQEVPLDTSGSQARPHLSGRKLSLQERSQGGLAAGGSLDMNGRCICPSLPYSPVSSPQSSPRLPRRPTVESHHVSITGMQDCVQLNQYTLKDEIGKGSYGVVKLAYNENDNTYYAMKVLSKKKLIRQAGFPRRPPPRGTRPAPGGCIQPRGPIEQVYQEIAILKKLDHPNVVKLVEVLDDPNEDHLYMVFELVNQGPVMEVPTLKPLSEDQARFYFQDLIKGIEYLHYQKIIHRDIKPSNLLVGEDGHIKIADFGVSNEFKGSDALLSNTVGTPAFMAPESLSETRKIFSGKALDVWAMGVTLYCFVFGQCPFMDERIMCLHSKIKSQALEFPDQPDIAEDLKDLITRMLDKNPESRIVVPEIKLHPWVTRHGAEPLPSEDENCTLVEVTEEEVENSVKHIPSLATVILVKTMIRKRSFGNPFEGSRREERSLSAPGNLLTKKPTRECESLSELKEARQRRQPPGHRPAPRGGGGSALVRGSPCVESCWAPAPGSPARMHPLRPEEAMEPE

MEK2 = molecular target: T3, MEK2 (Homo sapiens, UniProt P36507); experiment: biochemical; settings: read-out: %Ctrl @ 1000nM
T3 construct: gene MAP2K2
T3 sequence (P36507 whole entry): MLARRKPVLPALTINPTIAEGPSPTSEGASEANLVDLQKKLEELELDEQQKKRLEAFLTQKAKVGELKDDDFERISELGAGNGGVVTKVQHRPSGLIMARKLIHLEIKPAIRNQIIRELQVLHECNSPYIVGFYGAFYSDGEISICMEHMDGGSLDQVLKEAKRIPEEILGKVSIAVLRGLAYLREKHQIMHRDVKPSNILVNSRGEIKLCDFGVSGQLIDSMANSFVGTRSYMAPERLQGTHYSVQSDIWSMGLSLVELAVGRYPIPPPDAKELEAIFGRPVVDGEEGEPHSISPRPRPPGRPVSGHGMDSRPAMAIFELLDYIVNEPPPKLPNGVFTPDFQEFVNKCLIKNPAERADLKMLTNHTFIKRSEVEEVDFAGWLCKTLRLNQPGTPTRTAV

PFTK1 = molecular target: T4, PFTK1 (Homo sapiens, UniProt O94921); experiment: biochemical; settings: read-out: %Ctrl @ 1000nM
T4 construct: gene CDK14
T4 sequence (O94921 whole entry): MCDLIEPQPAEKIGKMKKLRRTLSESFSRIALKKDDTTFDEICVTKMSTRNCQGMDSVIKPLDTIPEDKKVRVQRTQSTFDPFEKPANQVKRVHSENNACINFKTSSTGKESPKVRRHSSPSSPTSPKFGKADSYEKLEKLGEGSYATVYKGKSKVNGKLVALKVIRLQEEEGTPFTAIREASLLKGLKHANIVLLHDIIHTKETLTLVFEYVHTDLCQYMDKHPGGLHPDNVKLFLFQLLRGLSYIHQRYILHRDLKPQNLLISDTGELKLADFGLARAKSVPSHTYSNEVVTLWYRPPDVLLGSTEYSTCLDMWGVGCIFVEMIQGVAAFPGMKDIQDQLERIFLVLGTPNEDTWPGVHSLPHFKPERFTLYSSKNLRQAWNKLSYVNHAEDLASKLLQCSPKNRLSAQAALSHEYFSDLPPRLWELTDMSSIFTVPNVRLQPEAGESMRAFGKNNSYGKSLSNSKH

CDK11, sequence (Q9BWU1 whole entry): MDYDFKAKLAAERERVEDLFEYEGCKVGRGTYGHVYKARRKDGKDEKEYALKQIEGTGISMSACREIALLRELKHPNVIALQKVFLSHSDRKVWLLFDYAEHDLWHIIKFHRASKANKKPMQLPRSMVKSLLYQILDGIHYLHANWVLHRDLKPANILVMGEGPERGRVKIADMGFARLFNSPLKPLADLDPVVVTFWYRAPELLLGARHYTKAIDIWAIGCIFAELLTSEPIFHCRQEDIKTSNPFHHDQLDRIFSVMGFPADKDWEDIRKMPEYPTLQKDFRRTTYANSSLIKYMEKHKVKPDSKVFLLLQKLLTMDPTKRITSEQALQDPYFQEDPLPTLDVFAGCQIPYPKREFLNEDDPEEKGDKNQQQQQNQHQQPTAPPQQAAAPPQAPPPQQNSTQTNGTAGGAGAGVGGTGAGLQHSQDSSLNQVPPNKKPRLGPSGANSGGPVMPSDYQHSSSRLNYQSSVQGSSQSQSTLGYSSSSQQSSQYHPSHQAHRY

- Kd (CDK11): 370 nM
- clearance [1]: 17.6 L/h/kg
- remaining binding at 1 µM (PFPK5(P.falciparum)): 100%
- remaining binding at 1 µM (PFCDPK1(P.falciparum)): 93%
- remaining binding at 1 µM (PKNB(M.tuberculosis)): 100%
- remaining activity at 1 µM (ALK(C1156Y)): 100%
- remaining activity at 1 µM (CAMKK2): 72%
- remaining activity at 1 µM (MEK2): 100%
- remaining activity at 1 µM (PFTK1): 94%
SMILES: Cc1cn(-c2cc(NC(=O)c3ccc4c(c3)CN(c3cncnc3)C[C@@H]4C)cc(C(F)(F)F)c2)cn1 [Compound 6j]
